The subject of the experiment is Leishmania tropica. Nature of the experiment: Growth inhibition of multidrug-resistant Leishmania tropica overexpressing P-glycoprotein-like transporter at 60 uM. It counts as functional. Set-up: scale not given: the % may be the effect or the level left.

For the molecule `CC(=O)OC[C@]12[C@H](OC(C)=O)C(=O)[C@@H]3[C@@H](OC(C)=O)[C@]1(O[C@@]3(C)COC(C)=O)[C@@](C)(O)[C@@H](OC(C)=O)[C@H](OC(C)=O)[C@@H]2OC(C)=O`, the Activity was determined as 28%.
